The text below walks through data of US10975068B2, “6-aminopyridin-3-yl thiazoles as modulators of RORγT” (Janssen Pharmaceutica NV, priority 2016, dated 2021).

The target of one experiment is full-length human RORγt (Homo sapiens (Human), UniProt P51449). As to the kind of experiment: RORγt (full-length human) reporter assay, Conditions B or C. The class given is cell-based. Particulars: for RORγt (FL) Reporter Assay B or C, % inhibition (value marked *): marked *: footnote not given; for inhibition at 3 µM: at 3 μM compound concentration; for inhibition at 6 µM: read-out: RORγt (FL) Reporter Assay B or C, % inhibition @ 6 μM, Conditions B or C. The gist of the method: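 Readout is dual luciferase: firefly (GAL4-driven) normalized to DMSO-only and saturating-reference controls, then to CMV-Renilla. Full-length human RORγt fused to GAL4-DBD was transiently expressed in HEK293T; compound exposure ran overnight (16-20 h) starting 4-6 h after transfection, final FBS 1.3%, DMSO 0.1%.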

Experiment [1] has as its target human RORγt ligand binding domain (RORγt LBD) (Homo sapiens (Human), UniProt P51449). As to the kind of experiment: RORγt ThermoFluor® assay (thermal shift binding). The conditions noted are these: read-out: ThermoFluor® Assay, Kd. The gist of the method: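 Binding was inferred from thermal stabilisation (ΔTm) of the E. coli-expressed RORγt LBD (0.065 mg/mL), monitored by 1,8-ANS (60 μM) emission at 500 nm during a 1 °C/min ramp. Buffer was Hepes 100 mM pH 7.0 with NaCl, GSH and Tween-20.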
(In DSF a fluorescence change marks the thermal transition of the protein.)

The mark [2] stands for this setting: Conditions B or C, read-out: RORγt (FL) Reporter Assay B or C, IC50.
Setting [3] is: read-out: RORγt (FL) Reporter Assay B or C, % inhibition.
Setting [4] is: read-out: RORγt (FL) Reporter Assay B or C, IC50.

Molecules are shown by their SMILES. pIC50, pKd: −log10 of the molar value. Where two headings read alike, the source gives them in different places.

Sequence of human RORγt ligand binding domain (RORγt LBD) (P51449 other isoform, or with tags, fused parts or gaps): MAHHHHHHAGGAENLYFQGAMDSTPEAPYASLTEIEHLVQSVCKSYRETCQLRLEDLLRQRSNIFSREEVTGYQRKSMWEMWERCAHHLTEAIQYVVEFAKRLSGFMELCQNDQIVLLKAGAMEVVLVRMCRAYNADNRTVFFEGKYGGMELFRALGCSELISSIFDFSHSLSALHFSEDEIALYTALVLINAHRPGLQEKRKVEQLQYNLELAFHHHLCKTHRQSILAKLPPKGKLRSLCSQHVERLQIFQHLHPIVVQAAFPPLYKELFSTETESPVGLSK
Sequence of full-length human RORγt (P51449 other isoform, or with tags, fused parts or gaps): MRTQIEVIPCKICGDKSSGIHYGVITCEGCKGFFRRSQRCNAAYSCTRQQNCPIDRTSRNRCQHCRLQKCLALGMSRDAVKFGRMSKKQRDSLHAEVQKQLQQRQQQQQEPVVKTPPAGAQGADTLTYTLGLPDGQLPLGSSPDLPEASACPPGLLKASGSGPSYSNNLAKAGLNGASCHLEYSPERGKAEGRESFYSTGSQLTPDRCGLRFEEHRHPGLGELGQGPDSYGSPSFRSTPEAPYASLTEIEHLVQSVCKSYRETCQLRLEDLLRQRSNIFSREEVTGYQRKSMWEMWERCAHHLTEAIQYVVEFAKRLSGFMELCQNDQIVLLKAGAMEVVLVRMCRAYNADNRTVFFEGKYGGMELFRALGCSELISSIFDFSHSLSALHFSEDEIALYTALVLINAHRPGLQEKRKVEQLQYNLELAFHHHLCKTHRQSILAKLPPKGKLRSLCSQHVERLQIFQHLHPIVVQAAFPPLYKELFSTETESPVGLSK

What is called pIC50 is the IC50 on a negative log10 scale, so that one unit is a factor of ten. In general, pKd refers to −log10 of the Kd, conventionally taken in molar units. `C[C@H]1CCCCN1C(=O)c1nc(C(=O)NCC(C)(C)O)sc1-c1cnc(NC(C)(C)C)cc1C(F)(F)F` [Example 80, (S)-5-(6-(tert-Butylamino)-4-(trifluoromethyl)pyridin-3-yl)-N-(2-hydroxy-2-methylpropyl)-4-(2-methylpiperidine-1-carbonyl)thiazole-2-carboxamide]: the “RORγt (FL) Reporter Assay B or C, % inhibition (value marked *)” value (“RORγt … % inhibition (value marked *)” for short) at full-length human RORγt (Conditions B or C) is 111* %. Moreover, the pIC50 at full-length human RORγt (setting [2]) was 8.33. Also, the pKd in experiment [1] was 9.72.
By inhibition is commonly meant the relative decrease from the control value, in per cent. Turning to `O=C(N[C@H]1COC[C@@H]1O)c1nc(C(=O)N2C3CCC2CC3)c(-c2cnc(N[C@@H](C3CC3)C(F)(F)F)cc2C(F)F)s1` [Example 417, 4-((1s,4s)-7-Azabicyclo[2.2.1]heptane-7-carbonyl)-5-[6-[[(1S)-1-cyclopropyl-2,2,2-trifluoro-ethyl]amino]-4-(difluoromethyl)-3-pyridyl]-N-[(3S,4R)-4-hydroxytetrahydrofuran-3-yl]thiazole-2-carboxamide], the pIC50 against full-length human RORγt (RORγt (FL) Reporter Assay B or C, IC50) is 7.55. The inhibition at 1 µM at full-length human RORγt (at 1 μM compound concentration, read-out: RORγt (FL) Reporter Assay B or C, % inhibition) was determined as 94%. Moreover, the pKd in experiment [1] is 8.62.
Consider `C[C@H](Nc1cc(C(F)F)c(-c2sc(C(=O)N[C@H]3C[C@H](O)C3)nc2C(=O)N2CCC[C@@H]2C)cn1)C(F)(F)F` [Example 188], for which, at full-length human RORγt (Conditions B or C), the “RORγt … % inhibition (value marked *)” value is given as 85* %. In addition, at full-length human RORγt (setting [2]), the pIC50 is 6.27. The pKd in experiment [1] was 7.33.
On the same counts, the results for `C[C@H]1CC(F)(F)CN1C(=O)c1nc(C(=O)NCC(C)(C)O)sc1-c1cnc(NC(C)(C)C2CC2)cc1C(F)(F)F` [Example 107, (S)-5-(6-((2-Cyclopropylpropan-2-yl)amino)-4-(trifluoromethyl)pyridin-3-yl)-4-(4,4-difluoro-2-methylpyrrolidine-1-carbonyl)-N-(2-hydroxy-2-methylpropyl)thiazole-2-carboxamide] are 111* %, 7.96 and 9.59.
For the compound `C[C@H](Nc1cc(C(F)F)c(-c2sc(C(=O)NCC(C)(C)O)nc2C(=O)N2CCC[C@@H]2C)cn1)C(C)(C)C` [Example 299, 5-(4-(Difluoromethyl)-6-(((S)-3,3-dimethylbutan-2-yl)amino)pyridin-3-yl)-N-(2-hydroxy-2-methylpropyl)-4-((S)-2-methylpyrrolidine-1-carbonyl)thiazole-2-carboxamide], at full-length human RORγt (setting [3]), the inhibition at 3 µM amounted to 103%. Moreover, the pIC50 on full-length human RORγt (setting [4]) was 7.96. Moreover, the pKd in experiment [1] is 9.04.
`CC[C@H](Nc1cc(C(F)F)c(-c2sc(C(=O)N[C@H]3CC[C@@H]3O)nc2C(=O)N2CCC[C@@H]2C)cn1)C(F)(F)F` (relative stereo) [Example 377, 5-(4-(Difluoromethyl)-6-(((S)-1,1,1-trifluorobutan-2-yl)amino)pyridin-3-yl)-N-((1S*,2S*)-2-hydroxycyclobutyl)-4-((S)-2-methylpyrrolidine-1-carbonyl)thiazole-2-carboxamide]: the inhibition at 3 µM on full-length human RORγt (setting [3]) came out at 91%. Besides, the pIC50 at full-length human RORγt (setting [4]) is 7.49. Besides, in experiment [1], the pKd was 8.47.
With `C[C@H](Nc1cc(C(F)F)c(-c2sc(C(=O)N[C@@H]3COC[C@H]3O)nc2C(=O)N2CCC[C@@H]2C)cn1)C(F)(F)F` [Example 215, 5-(4-(Difluoromethyl)-6-(((1S)-2,2,2-trifluoro-1-methyl-ethyl)amino)-3-pyridyl)-N-((3R,4S)-4-hydroxytetrahydrofuran-3-yl)-4-((2S)-2-methylpyrrolidine-1-carbonyl)thiazole-2-carboxamide], on full-length human RORγt (Conditions B or C), the “RORγt … % inhibition (value marked *)” value is given as 107* %. Also, on full-length human RORγt (setting [2]), the pIC50 was 7.00. Moreover, in experiment [1], the pKd is 7.92.
Consider `C[C@H]1CCCN1C(=O)c1nc(C(=O)NCC(C)(C)O)sc1-c1cnc(N[C@@H]2CCCCC2(F)F)cc1C(F)(F)F` (relative stereo) [Example 35, 5-(6-(((R*)-2,2-Difluorocyclohexyl)amino)-4-(trifluoromethyl)pyridin-3-yl)-N-(2-hydroxy-2-methylpropyl)-4-((S)-2-methylpyrrolidine-1-carbonyl)thiazole-2-carboxamide], for which the pIC50 on full-length human RORγt (setting [2]) was 7.70. Besides, the inhibition at 6 µM at full-length human RORγt was found to be 114%. In experiment [1], the pKd was 8.41.
For `C[C@H](Nc1cc(C(F)F)c(-c2sc(C(=O)N[C@H]3CCC[C@@H]3O)nc2C(=O)N2CC(F)(F)C[C@@H]2C)cn1)C(F)(F)F` [Example 418, 4-[(2S)-4,4-Difluoro-2-methyl-pyrrolidine-1-carbonyl]-5-[4-(difluoromethyl)-6-[[(1S)-2,2,2-trifluoro-1-methyl-ethyl]amino]-3-pyridyl]-N-[(1S,2S)-2-hydroxycyclopentyl]thiazole-2-carboxamide], the inhibition at 3 µM on full-length human RORγt (setting [3]) came to 105%. The pIC50 on full-length human RORγt (setting [4]) is 7.49. In experiment [1], the pKd was 9.11.
For the compound `C[C@H](Nc1cc(C(F)(F)F)c(-c2sc(C(=O)NCC(C)(C)O)nc2C(=O)N2CCC(F)CC2)cn1)C1CC1` [Example 30, (S)-5-(6-((1-Cyclopropylethyl)amino)-4-(trifluoromethyl)pyridin-3-yl)-4-(4-fluoropiperidine-1-carbonyl)-N-(2-hydroxy-2-methylpropyl)thiazole-2-carboxamide], the pIC50 at full-length human RORγt (setting [2]) is 7.70. Further, at full-length human RORγt, the inhibition at 6 µM came to 104%. Moreover, the pKd in experiment [1] was 8.55.
Regarding `CC(C)(O)CNC(=O)c1nc(C(=O)N2C3CCC2CC3)c(-c2cnc(NC(C)(C)C)cc2C(F)(F)F)s1` [Example 79, 4-((1s,4s)-7-Azabicyclo[2.2.1]heptane-7-carbonyl)-5-(6-(tert-butylamino)-4-(trifluoromethyl)pyridin-3-yl)-N-(2-hydroxy-2-methylpropyl)thiazole-2-carboxamide], the “RORγt … % inhibition (value marked *)” value at full-length human RORγt (Conditions B or C) is 111* %. For the same compound, on full-length human RORγt (setting [2]), the pIC50 is 8.08. Also, in experiment [1], the pKd was 8.92.
What is called IC50 is the concentration at which inhibition is half-maximal. Higher therefore signals weaker potency. For `C[C@H](Nc1cc(C(F)(F)F)c(-c2sc(C(=O)NCC(C)(C)O)nc2C(=O)N2C3CCC2CC3)cn1)C(F)(F)F` [Example 82, 4-((1s,4s)-7-Azabicyclo[2.2.1]heptane-7-carbonyl)-N-(2-hydroxy-2-methylpropyl)-5-(4-(trifluoromethyl)-6-(((S)-1,1,1-trifluoropropan-2-yl)amino)pyridin-3-yl)thiazole-2-carboxamide], on full-length human RORγt (Conditions B or C), the “RORγt … % inhibition (value marked *)” value is listed as 117* %. Besides, at full-length human RORγt (RORγt (FL) Reporter Assay B or C, IC50 (μM), Conditions B or C), it took 0.079 µM to reach half-maximal inhibition (IC50). Further, the pKd in experiment [1] is 8.32.
For `CC[C@@H](Nc1cc(C(F)F)c(-c2sc(C(=O)NCC(C)(C)O)nc2C(=O)N2CCC[C@@H]2C)cn1)C1CC1` (relative stereo) [Example 167, 5-(6-(((R*)-1-Cyclopropyl)amino)-4-(difluoromethyl)pyridine-3-yl)-N-(2-hydroxy-2-methylpropyl)-4-((S)-2-methylpyrrolidine-1-carbonyl)thiazole-2-carboxamide], the “RORγt … % inhibition (value marked *)” value on full-length human RORγt (Conditions B or C) is listed as 100* %. Further, the pIC50 at full-length human RORγt (setting [2]) was 6.92. Also, the pKd in experiment [1] is 8.43.
On the same counts, the results for `CC[C@H](Nc1cc(C(F)(F)F)c(-c2sc(C(=O)N[C@@H]3COC[C@H]3O)nc2C(=O)N2CCC[C@@H]2C)cn1)C(F)(F)F` [Example 170, N-((3R,4S)-4-Hydroxytetrahydrofuran-3-yl)-4-((2S)-2-methylpyrrolidine-1-carbonyl)-5-(4-(trifluoromethyl)-6-(((1S)-1-(trifluoromethyl)propyl)amino)-3-pyridyl)thiazole-2-carboxamide] are 101* %, 7.62 and 8.72.
The like results for `CC[C@H](Nc1cc(C(F)F)c(-c2sc(C(=O)NC3CS(=O)(=O)C3)nc2C(=O)N2CCC[C@@H]2C)cn1)C(F)(F)F` [Example 240, 5-[4-(Difluoromethyl)-6-[[(1S)-1-(trifluoromethyl)propyl]amino]-3-pyridyl]-N-(1,1-dioxothietan-3-yl)-4-[(2S)-2-methylpyrrolidine-1-carbonyl]thiazole-2-carboxamide] were, in that order, 107* %, 7.24 and 8.60.
In the case of `CC[C@H](Nc1cc(C(F)F)c(-c2sc(C(=O)NC3CCOCC3)nc2C(=O)N2CCC[C@@H]2C)cn1)C(F)(F)F` [Example 394, 5-[4-(Difluoromethyl)-6-[[(1S)-1-(trifluoromethyl)propyl]amino]-3-pyridyl]-4-[(2S)-2-methylpyrrolidine-1-carbonyl]-N-tetrahydropyran-4-yl-thiazole-2-carboxamide], the inhibition at 3 µM on full-length human RORγt (setting [3]) stood at 114%. Besides, at full-length human RORγt (setting [4]), the pIC50 is 7.47. The negative logarithm of the Kd (pKd) in experiment [1] was 8.70.
On to `CC[C@H](Nc1cc(C(F)F)c(-c2sc(C(=O)N[C@H](C)[C@H](C)O)nc2C(=O)N2CCC[C@@H]2C)cn1)C(F)(F)F` (relative stereo) [Example 218, 5-(4-(Difluoromethyl)-6-(((S)-1,1,1-trifluorobutan-2-yl)amino)pyridin-3-yl)-N-((2R*,3S*)-3-hydroxybutan-2-yl)-4-((S)-2-methylpyrrolidine-1-carbonyl)thiazole-2-carboxamide], for which the “RORγt … % inhibition (value marked *)” value on full-length human RORγt (Conditions B or C) was 111* %. In addition, the negative logarithm of the IC50 (pIC50) on full-length human RORγt (setting [2]) is 7.35. The pKd in experiment [1] was 8.11.
